IC50 data for 11 molecules are collected here from EP4782437A1, “HETEROARYL COMPOUND, AND PREPARATION METHOD THEREFOR AND USE THEREOF IN MEDICINE” (Jiangsu Hengrui Pharmaceuticals Co., Ltd., priority 2023, dated 2025).

Each structure is given as a SMILES string. Like-named read-outs stand apart in the source and are kept apart here.

The test system of assay [1] is B cell activation in human whole blood. The experiment in a line: Inhibition of B cell activation in human whole blood (CD69 expression, flow cytometry). Format: cell-based. The following applies: anti-human IgD 30 µg/ml + IL-4 5 ng/ml, 18 hours, CD69-positive CD19-positive B cells, read-out: IC50 values of inhibitory activity against B cell activation in human whole blood. From the text: Test example 2: Inhibitory activity of compounds of the present disclosure against B cell activation in human whole blood • I. Experimental materials and instruments • 1. Human whole blood (internal recruitment) • 2. Goat F(ab')2 anti-human IgD-UNLB (SouthernBiotech, 2032-01) • 3. DPBS (1x) (Gibco, 14190-144) • 4. Recombinant human IL-4 (Peprotech, 200-04) • 5. Brilliant Violet 421™ anti-human CD19 antibody (Biolegend, 302234) • 6. APC anti-human CD69 antibody (Biolegend, 310910) • 7. APC mouse IgG1, κ isotype control antibody (Biolegend, 400120) • 8. eBioscience™ 10X RBC lysis buffer (multi-species) (Thermo, 004300-54) • 9. NEST 96-well deep-well plate (Wuxi NEST Biotechnology Co., Ltd., 503501) • 10. 96-well round-bottom plate (Corning, 3788) • 11. 96-well flat-bottom plate (Corning, 3599) • 12. Attune™ NxT acoustic focusing cytometer (ThermoFisher Scientific, 4.2.0) • 13. Cell incubator (Thermo, Forma steri-cycle i160) • II. Experimental procedure
B cells express the B cell receptor (BCR) complex on their surface. When B cells in human whole blood are induced to activate, they can trigger the downstream signalling pathways of the receptor and express the activation marker CD69. The expression of CD69 in activated B cells was detected by flow cytometry, and the IC50 of the compounds were calculated to evaluate the effects of the compounds on BCR activation.
The test compounds dissolved in 100% DMSO at 20 mM were diluted with 100% DMSO to a concentration of 1 mM, which represents the 200× concentration of the highest compound concentration point in the reaction system. The compounds at this concentration were then subjected to 8-point 4-fold serial dilution with 100% DMSO. The positive control wells were set with 100% DMSO, whereas the negative control wells were set with Remiburtinib at a final concentration of 5 µM. The serially diluted compounds and 100% DMSO were further diluted 10-fold in PBS to achieve the 20× concentration, followed by thorough mixing.
After thorough mixing, the whole blood sample was transferred to a loading reservoir and then dispensed into a 96-well flat-bottom plate at 80 µl per well. The compound dilution was dispensed at 5 µl per well. The 11th column of each row was designated as the negative control well, with 5 µl of 100 µM positive control drug added to each well. After thorough mixing for 5 min, the plate was incubated in a 37°C incubator for 30 min. Human IgD antibody was diluted 1.67-fold with PBS to a concentration of 300 µg/mL, and 10 µl of the diluted solution was added to each well of the culture plate (final concentration: 30 µg/ml). Human IL-4 (stock solution at 50 µg/ml) was diluted 500-fold with PBS to a concentration of 100 ng/mL, and 5 µl of the diluted solution was added to each well of the culture plate (final concentration: 5 ng/ml). After thorough mixing for 5 min, the plate was cultured in a 37°C incubator with 5% CO2 for 18 hours.
Flow cytometry detection: CD69-APC, CD19-BV421 and CD4-APC antibodies, and the isotype control antibodies for CD69-APC were removed from 4°C storage. Each antibody was added at 1 µl per well. After thorough mixing for 5 min, the plate was incubated for 30 min at 4°C (refrigerator) in the dark for staining. The 10X RBC lysis buffer was diluted in water to prepare 1X RBC lysis buffer. Aliquots of 1 ml of the lysis buffer were dispensed into each well of a 96-well deep-well plate in advance. The stained samples were transferred into the deep-well plate containing the lysis buffer for erythrocyte lysis. After completing the transfer of an entire plate, the plate was incubated in the dark for 15-20 min. Upon completion of lysis, the plate was centrifuged at 2000 rpm for 4 min. Each well was washed with 1 ml of PBS. Subsequently, the cells were resuspended in 200 µl of PBS, transferred to a 96-well plate, and washed twice more using the same procedure. The samples were resuspended in 200 µl of PBS per well and then subjected to flow cytometry detection. […]

The target in assay [2] is T1, BTK recombinant human protein (Homo sapiens, UniProt Q06187).
T1 construct: purchased Thermo PV3363
T1 sequence (Q06187 whole entry): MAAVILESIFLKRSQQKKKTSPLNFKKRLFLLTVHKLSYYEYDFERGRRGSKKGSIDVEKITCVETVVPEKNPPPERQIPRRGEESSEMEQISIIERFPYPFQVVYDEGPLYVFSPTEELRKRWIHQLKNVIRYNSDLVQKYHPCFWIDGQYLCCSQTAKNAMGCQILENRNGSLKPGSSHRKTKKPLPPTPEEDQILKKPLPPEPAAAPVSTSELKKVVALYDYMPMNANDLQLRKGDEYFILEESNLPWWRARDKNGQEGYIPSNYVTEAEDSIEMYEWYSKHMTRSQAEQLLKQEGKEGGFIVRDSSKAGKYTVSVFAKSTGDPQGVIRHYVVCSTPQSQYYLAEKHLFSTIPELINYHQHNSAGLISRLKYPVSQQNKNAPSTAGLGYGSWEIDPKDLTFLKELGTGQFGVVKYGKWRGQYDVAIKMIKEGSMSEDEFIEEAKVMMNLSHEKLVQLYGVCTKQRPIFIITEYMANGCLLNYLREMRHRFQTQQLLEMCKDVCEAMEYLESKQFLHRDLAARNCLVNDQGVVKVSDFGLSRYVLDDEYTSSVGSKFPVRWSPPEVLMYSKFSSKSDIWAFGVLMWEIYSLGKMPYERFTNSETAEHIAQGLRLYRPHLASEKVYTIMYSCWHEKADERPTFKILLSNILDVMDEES
Briefly: Inhibitory activity against BTK (HTRF KinEASE-TK kit). Format: biochemical. As to the method: Test example 1: Inhibitory activity of compounds of the present disclosure against BTK • I. Experimental materials and instruments • 1. BTK recombinant human protein (Thermo, PV3363) • 2. HTRF KinEASE-TK kit (Cisbio, 62TK0PEC) • 3. 1 M MgCl2 (Thermo, AM9530G) • 4. 1 M MnCl2 (Sigma, M1787-100ML) • 5. Adenosine 5'-triphosphate (ATP) (New England Biolabs, P0756L) • 6. DTT 2M (Sangon Biotech, B645939) • 7. Ultrapure water (Invitrogen, 10977-015) • 8. OptiPlate-384, white opaque 384-well microplate (PerkinElmer, 6007290) • 9. 96-well round-bottom plate (Corning, 3788) • 10. Biochemical incubator (Shanghai Boxun Medical & Biological Instruments Co., Ltd., BSP-100) • 11. 15-mL centrifuge tube (Corning) • 12. Benchtop high-speed centrifuge (Changsha Yingtai Instrument Co., Ltd., TD4N) • 13. Multifunctional microplate reader (PerkinElmer, EnVision) • 14. Bravo liquid handling platform (Agilent Technologies, SGC120TH34702) • II. Experimental procedure
The HTRF KinEASE-TK kit is designed to detect changes in BTK enzyme activity based on two technologies, i.e., fluorescence resonance energy transfer and time-resolved fluorescence. The kit is operated in two stages: 1) enzyme reaction stage: the enzyme reaction is initiated by adding ATP, where the enzyme phosphorylates the substrate, and the compounds are then added to competitively bind to BTK against ATP, thereby inhibiting substrate phosphorylation; and 2) detection stage: after the enzyme reaction is complete, a detection reagent is added to terminate the reaction. Different groups on the phosphorylated substrate bind to the energy donor and energy acceptor, respectively, bringing the two into close proximity. During the instrumental readout, the energy donor is excited by an external light source, which enables resonance energy transfer to the proximal energy acceptor. The acceptor, in turn, becomes excited and emits light at a specific wavelength. Thus, changes in enzyme activity can be detected by measuring the signal values, and the inhibition rate of the compounds against the target enzyme can be calculated, thereby evaluating the inhibitory effect of the compounds on BTK enzyme activity.
Preparation of enzyme reaction buffer: 5× Kinase Buffer was diluted 5-fold with ultrapure water, and then the stock solutions of MgCl2, MnCl2 and DTT were added. The final composition of the buffer was as follows: 1× Kinase Buffer, 10 mM MgCl2, 1 mM MnCl2, and 1 mM DTT.
Preparation of 5 × BTK working solution: The BTK (5.17 µM) stock solution was removed from -20°C storage. Given that the BTK concentration in the enzyme reaction system was 2 nM and the concentration of the 5× working solution was 10 nM, the BTK stock solution was diluted 517-fold with the enzyme reaction buffer according to the volume required for the experiment. The diluted solution was then added to the 384-well plate at 2 µL per well. The plate was placed in a plate spinner and centrifuged at 2000 rpm for 1 minute to bring the liquid to the bottom of the wells.
[…]. Given that the SEB concentration in the enzyme reaction system was 50 nM and the concentration of the 5× working solution was 250 nM, the SEB stock solution was diluted 10-fold with the enzyme reaction buffer according to the volume required for the experiment. The diluted solution was then added to the 384-well plate at 2 µL per well. The plate was placed in a plate spinner and centrifuged at 2000 rpm for 1 minute to bring the liquid to the bottom of the wells.
The test compounds dissolved in 100% DMSO at 20 mM were diluted with 100% DMSO to a concentration of 200 µM, which represents the 200× concentration of the highest compound concentration point in the reaction system. The compounds at this concentration were then subjected to 10-point 3-fold serial dilution with 100% DMSO. The positive control wells and negative control wells were set with 100% DMSO. […]
On the technique in general: Time-resolved FRET reads energy transfer from a long-lived donor to a nearby acceptor.

The mark [3] stands for this setting: 2 nM BTK, 10 µM ATP, 0.5 hours preincubation at 25°C; read-out: IC50 values of inhibitory activity against BTK.
The mark [4] stands for this setting: read-out: IC50 values of inhibitory activity against BTK; 2 nM BTK, 10 µM ATP, 0.5 hours preincubation at 25°C.

Regarding `C=CC(=O)N(C)CCOc1c(N)ncnc1-c1cc(F)cc(NC(=O)c2cc3c(cc2F)C2(CC3)CC2)c1C` [Example 1, N-(3-(6-amino-5-(2-(N-methacrylamido)ethoxy)pyrimidin-4-yl)-5-fluoro-2-methylphenyl)-6'-fluoro-2',3'-dihydrospiro[cyclopropane-1,1'-indene]-5'-carboxamide], the results for the IC50 in assay [1] and in assay [2] (setting [3]) were 10 to 100 nM and 6.09 nM, respectively.
For the molecule `C=CC(=O)N(C)CCOc1c(N)ncnc1-c1cc(F)cc(NC(=O)c2ccc(C3(C)CC3)cc2F)c1C` [Example 2, N-(3-(6-amino-5-(2-(N-methacrylamido)ethoxy)pyrimidin-4-yl)-5-fluoro-2-methylphenyl)-2-fluoro-4-(1-methylcyclopropyl)benzamide], the IC50 (usually the concentration needed to halve the response being measured) in assay [1] fell in the range of 10 to 100 nM.
On to `C=CC(=O)N(C)CCOc1c(N)ncnc1-c1cc(F)cc(NC(=O)c2ccc3c(c2F)OC(C)(C)C3)c1C` [Example 4, N-(3-(6-amino-5-(2-(N-methacrylamido)ethoxy)pyrimidin-4-yl)-5-fluoro-2-methylphenyl)-7-fluoro-2,2-dimethyl-2,3-dihydrobenzofuran-6-carboxamide], for which the IC50 in assay [1] was 10 to 100 nM; in assay [2] (setting [4]) it was 5.1 nM.
Consider `C=CC(=O)N(C)CCOc1c(N)ncnc1-c1cc(F)cc(NC(=O)c2ccc3c(c2F)OCC32CC2)c1C` [Example 5, N-(3-(6-amino-5-(2-(N-methacrylamido)ethoxy)pyrimidin-4-yl)-5-fluoro-2-methylphenyl)-7-fluoro-2H-spiro[benzofuran-3,1'-cyclopropane]-6-carboxamide], for which the IC50 is 10 to 100 nM in assay [1] and 6.9 nM in assay [2] (setting [3]).
For the molecule `C=CC(=O)N(C)CCOc1c(N)ncnc1-c1cc(F)cc(NC(=O)c2cc3c(cc2F)C2(CC3)CC2)c1CO` [Example 11, N-(3-(6-amino-5-(2-(N-methacrylamido)ethoxy)pyrimidin-4-yl)-5-fluoro-2-(hydroxymethyl)phenyl)-6'-fluoro-2',3'-dihydrospiro[cyclopropane-1,1'-indene]-5'-carboxamide], the results for the IC50 in assay [1] and in assay [2] (setting [4]) were 10 to 100 nM and 4.2 nM, respectively.
For `C=CC(=O)N(C)CCOc1c(N)ncnc1-c1cc(F)cc(NC(=O)c2cc3c(cc2F)C(C)(C)CC3)c1C` [Example 12, N-(3-(6-amino-5-(2-(N-methacrylamido)ethoxy)pyrimidin-4-yl)-5-fluoro-2-methylphenyl)-6-fluoro-1,1-dimethyl-2,3-dihydro-1H-indene-5-carboxamide], the IC50 was 10 to 100 nM in assay [1] and 4 nM in assay [2] (setting [3]).
For `[2H]C([2H])([2H])N(CCOc1c(N)ncnc1-c1cc(F)cc(NC(=O)c2cc3c(cc2F)C2(CC2)CO3)c1C)C(=O)C=C` [Example 17, N-(3-(6-amino-5-(2-(N-(methyl-d3)acrylamido)ethoxy)pyrimidin-4-yl)-5-fluoro-2-methylphenyl)-5-fluoro-2H-spiro[benzofuran-3,1'-cyclopropane]-6-carboxamide] the same measures were 10 to 100 nM and 5.74 nM.
Consider `[2H]C([2H])([2H])N(CCOc1c(N)ncnc1-c1cc(F)cc(NC(=O)c2ccc3c(c2F)OCC32CC2)c1C)C(=O)C=C` [Example 18, N-(3-(6-amino-5-(2-(N-(methyl-d3)acrylamido)ethoxy)pyrimidin-4-yl)-5-fluoro-2-methylphenyl)-7-fluoro-2H-spiro[benzofuran-3,1'-cyclopropane]-6-carboxamide], for which the figures for the IC50 in assay [1] and in assay [2] (setting [3]) were 10 to 100 nM and 3.78 nM, respectively.
As to `[2H]C([2H])([2H])N(CCOc1c(N)ncnc1-c1cc(F)cc(NC(=O)c2cc3c(cc2F)C2(CC3)CC2)c1C)C(=O)C=C` [Example 19, N-(3-(6-amino-5-(2-(N-(methyl-d3)acrylamido)ethoxy)pyrimidin-4-yl)-5-fluoro-2-methylphenyl)-6'-fluoro-2',3'-dihydrospiro[cyclopropane-1,1'-indene]-5'-carboxamide], the IC50 is 10 to 100 nM in assay [1] and 8.99 nM in assay [2] (setting [3]).
Consider `C=CC(=O)N(C)CCOc1c(N)ncnc1-c1cc(F)cc(NC(=O)c2ccc3c(c2F)OC2(CC2)C3)c1C` [Example 20], for which the IC50 in assay [1] fell in the range of 10 to 100 nM.
For the molecule `C=CC(=O)N1CCC[C@H]1COc1c(N)ncnc1-c1cc(F)cc(NC(=O)c2ccc3c(c2F)OCC3(C)C)c1C` [Example 31, (S)-N-(3-(5-((1-acryloylpyrrolidin-2-yl)methoxy)-6-aminopyrimidin-4-yl)-5-fluoro-2-methylphenyl)-7-fluoro-3,3-dimethyl-2,3-dihydrobenzofuran-6-carboxamide], the IC50 in assay [1] was 10 to 100 nM; in assay [2] (setting [3]), 0.7 nM.
